The results in this text go back to patent US20250057859A1, “CANNABICHROMENEQUINONE AND ANALOGUES THEREOF, AND METHOD OF USING COMPOSITIONS THEREOF AS ANTI-INFLAMMATORY AGENTS” (Juva Life, Inc., priority 2021, published 2025).

Read-outs that look alike come from different tables or passages of the source.

One assay concerns IL-6. In words: IL-6 secretion assay in human PBMCs (LPS-stimulated, ELISA). Format: cell-based. The conditions noted are these: PBMC, LPS 100 ng/mL 6 hr, read-out: IL6 inhibitory activity IC50. As for the experimental part:
Fetal bovine serum (FBS) was obtained from ThermoFisher (Cat #16000044). • Other reagents: 96well TC plates were obtained from ThermoFisher (Cat #07-2000-90). LPS was obtained from Sigma (Cat #L3024).
IL-6 was assessed using a standard ELISA protocol. Cryopreserved PBMCs were thawed in a water bath and transferred to 50 mL polypropylene tubes. The cells were washed two times with 25 mL of RPMI medium supplemented with 5% of heat-inactivated FBS and re-suspended at a density of 4.5^10^6 cells/mL. The cells were plated into 96 well TC late (100 uL/well). Serially diluted compound was added to the cells in duplicate wells for each concentration. Control wells received DMSO only (0.3% final). The cells were pre-incubated with compound for 1 hr. After pre-incubation, the cells were stimulated by LPS (100 ng/mL) for 6 hr. Control samples with and without LPS in the absence of compound were assembled in each test plate. IL-6 was detected in media supernatants by using a sandwich anti-IL-6 ELISA kit (BD Biosciences) according to protocol provided by the manufacturer. ELISA readout (optical density at 450 nm) is commensurable with the amount of IL-6 produced by the cells. Assay window was determined in each experiment by comparing average OD450 values in stimulated and un-stimulated samples in the absence of compound. ELISA calibration was performed in each detection plate using serially diluted recombinant human IL-6, to ensure that OD450 values for all test samples were within linear range of detection.%-Inhibition by compound was calculated using following equation:
[formula] • where OD450100% is optical density in control samples stimulated with LPS without compound, OD4500% is optical density in unstimulated control samples, and OD450compound is optical density in a sample stimulated with LPS in the presence of compound.
(§1) The calculated %-Inh values were plotted against compound concentration. To determine IC50 values, dose-response curves were fitted by a 4-parameter sigmoid inhibition model using XLFit® software (IDBS).
For orientation: An ELISA detects its analyte on a solid surface through an enzyme-linked reagent.

In another assay the target is T1, recombinant human LOX-5 (Homo sapiens, UniProt P09917).
T1 construct: expressed in insect cells (Amino Acids 1-674) was obtained from Cayman; purchased Cayman 60402; host or cells: insect cells
T1 sequence (P09917 1-674): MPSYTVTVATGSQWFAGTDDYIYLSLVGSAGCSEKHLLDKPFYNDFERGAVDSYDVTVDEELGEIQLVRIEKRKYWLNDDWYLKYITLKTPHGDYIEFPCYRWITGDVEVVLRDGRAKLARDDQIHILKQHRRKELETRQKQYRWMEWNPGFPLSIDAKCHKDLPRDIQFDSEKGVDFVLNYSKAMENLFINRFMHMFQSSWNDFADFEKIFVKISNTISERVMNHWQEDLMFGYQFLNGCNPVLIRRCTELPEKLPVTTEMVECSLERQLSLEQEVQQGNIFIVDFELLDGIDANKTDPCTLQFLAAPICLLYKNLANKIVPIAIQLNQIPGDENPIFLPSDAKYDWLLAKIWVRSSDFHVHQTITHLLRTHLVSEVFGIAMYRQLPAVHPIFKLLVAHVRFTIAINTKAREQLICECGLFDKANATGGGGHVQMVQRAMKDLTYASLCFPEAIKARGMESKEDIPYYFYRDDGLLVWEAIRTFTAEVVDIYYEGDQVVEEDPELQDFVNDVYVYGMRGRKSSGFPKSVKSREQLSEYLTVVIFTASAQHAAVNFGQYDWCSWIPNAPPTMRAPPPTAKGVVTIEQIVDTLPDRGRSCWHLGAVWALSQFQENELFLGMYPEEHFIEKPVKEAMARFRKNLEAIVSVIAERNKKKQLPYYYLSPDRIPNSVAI
In words: Biochemical LOX-5 assay.
From the text: • Active recombinant human LOX-5 protein expressed in insect cells (Amino Acids 1-674) was obtained from Cayman (Cat #60402) • 2′,7′-dichlorodihydrofluorescein diacetate, H2DCFDA, was obtained from Sigma (Cat #96883) • Arachidonic acid, AA, was obtained from Sigma (Cat #A3611) • Other reagents: black 384 well assay plates were obtained from Corning (Cat #3820). • Equipment: Synergy Neo2 Multi-mode plate reader (Biotek), Labcyte 550 acoustic dispenser (Labcyte), Biomek FX robotic dispenser (Beckman Coulter), Sorvall Legend RT centrifuge (Kendro).
The LOX-5 assay was performed in assay buffer comprising: 50 mM Tris (pH 7.5), 2 mM EDTA, 2 mM CaCl2, 3 uM AA, 10 uM ATP, 10 uM H2DCFDA, and recombinant enzyme (50mU per 20 ul reaction, as defined by manufacturer). Serially diluted compounds were prepared in DMSO in Echo qualified 384 well plates. An assay buffer was then prepared without AA and ATP supplemented with 20 uM H2DCFDA. 10 μL of the supplemented buffer was dispensed into control (no enzyme) wells in the black 384well assay plate. Next, a 2× enzyme solution was prepared, comprising 100 mU LOX-5 enzyme in the supplemented assay buffer. 10 uL of the 2× enzyme solution was then dispensed into test wells in the black 384well assay plate. Serially diluted compounds were added to the assay plate by acoustic dispensing (Labcyte 550). Control wells received DMSO only.
Next, the 2× substrate was prepared to comprise 6 uM arachidonic acid and 20 uM ATP in the assay buffer. 10 μL of the 2× substrate was then added to all wells in the assay plate. The plate was incubated for 20 min. The plate was read on Synergy Neo2 in fluorescence mode: excitation 485 nm, emission 530 nm. % inhibition and the resulting IC50 was calculated for the compound using the following equation:
[formula] • where RFU100% is fluorescence in control samples without compound, RFU0% is fluorescence in control samples without LOX-5, and RFUcompound fluorescence in a sample with compound.
as §1

Where [1] appears, read: recombinant enzyme, 3 uM AA, read-out: 5-Lox inhibitory activity IC50.

On to `CCCCCC1=CC(=O)C2=C(OC(C)(CCC=C(C)C)C=C2)C1=O` (stereo not shown) [Formula II], for which the 50% inhibitory concentration (IC50) – broadly, the point on the concentration scale where inhibition reaches its midpoint – in the assay with IL-6 worked out at 1200 nM; on recombinant human LOX-5 (setting [1]) it was 270 nM.

On to `CCCCCc1cc(OC(C)=O)c2c(c1OC(C)=O)OC(C)(CCC=C(C)C)C=C2` (stereo not shown) [Formula XXIII], for which the IC50 in the assay with IL-6 is 8700 nM; at recombinant human LOX-5 (setting [1]), 2710 nM.

As to `CCCCCc1cc(O)c2c(c1O)OC(C)(CCC=C(C)C)C=C2` (stereo not shown) [Formula XXII], the IC50 with IL-6 is more than 10000 nM; at recombinant human LOX-5 (setting [1]), 250 nM.

Regarding `CCCCCc1cc(OC)c2c(c1OC)OC(C)(CCC=C(C)C)C=C2` (stereo not shown) [Formula XXIV], the IC50 with IL-6 is 14400 nM; on recombinant human LOX-5 (setting [1]) it was more than 10000 nM.

For `CCCCCC1=C(NCC)C(=O)C2=C(OC(C)(CCC=C(C)C)C=C2)C1=O` (stereo not shown) [Formula XXVIII], the IC50 with IL-6 and on recombinant human LOX-5 (setting [1]) was more than 10000 nM each time.

Consider `CC(C)=CCCC1(C)C=CC2=C(O1)C(=O)c1ccccc1C2=O` (stereo not shown) [Formula XXVII], for which the IC50 with IL-6 and at recombinant human LOX-5 was more than 10000 nM in each case.

As for `CCCCCC1=CC(=O)C2=C(O[C@](C)(CCC=C(C)C)C=C2)C1=O` [Formula XXVI], the IC50 with IL-6 came to 1070 nM; at recombinant human LOX-5 (setting [1]), 230 nM.

As for `CCCCCC1=C(NCCC)C(=O)C2=C(OC(C)(CCC=C(C)C)C=C2)C1=O` (stereo not shown) [Formula XXV], the IC50 was found to be 9300 nM with IL-6 and 1180 nM at recombinant human LOX-5 (setting [1]).
